Assay results: US7713963B2, “Acylated indanyl amines and their use as pharmaceuticals” (sanofi-aventis Deutschland GmbH, priority 2001, dated 2010)
Like-named read-outs stand apart in the source and are kept apart here.

Test system: eNOS promoter
Experiment: Activation of eNOS transcription (eNOS promoter-luciferase reporter gene assay)
Format: cell-based, human
Conditions: for maximal fold induction: read-out: TIR (max)
Procedure: Measurement of activation of eNOS transcription Activation of eNOS transcription was measured as described in detail in Li et al. “Activation of protein kinase C alpha and/or epsilon enhances transcription of the human endothelial nitric oxide synthase gene”, Mol. Pharmacol. 1998; 53: 630-637. Briefly, a 3.5 kB long fragment 5′ of the starting codon of the eNOS gene was cloned, sequenced and cloned in firefly luciferase expression plasmids to monitor activation of the eNOS promoter by reporter gene activity. A human endothelial cell line stable transfected and expressing this promoter-reporter construct was used for compound testing. Cells were incubated for 18 h with compounds. All compounds were dissolved in sterile DMSO. A final concentration of 0.5% DMSO in complete medium was allowed. Induction of reporter gene expression in these cells was measured using a standard luciferase assay system (Promega, Cat. No E150) according to the manufacturer's instructions. Luciferase induction in cells incubated with compounds were compared to those incubated with solvent alone. The ratio of both activities (transcription induction ratio, TIR) was plotted as a function of compound concentration. […] EC50 values of transcription induction ratios as a function of compound concentration were determined graphically.

[1] = Homo sapiens, 18 h, maximum transcription induction ratio (luciferase with compound / solvent alone), 18 h incubation
[2] = Homo sapiens, Endothelial cell, 18 h, EC50 of transcription induction ratio, determined graphically, human endothelial cell line, 18 h incubation, read-out: EC-50

EC50 [2] [µM]	Structure (SMILES)	maximal fold induction [1]	other results
16	O=C(NC1Cc2ccccc2C1)c1ccc(Cl)nc1Cl [Compound 203, 2,6-DICHLORO-N-INDAN-2-YL-NICOTINAMIDE]	2.7	
0.309	O=C(NC1Cc2ccccc2C1)c1ccc(OCC(F)(F)F)cc1 [Compound 386B, N-INDAN-2-YL-4-(2,2,2-TRIFLUORO-ETHOXY)-BENZAMIDE]	2.5	
21	O=C(NC1Cc2ccccc2C1)c1c(F)ccc(F)c1F [Compound 274, 2,3,6-TRIFLUORO-N-INDAN-2-YL-BENZAMIDE]		
30	O=C(NC1Cc2ccc(OS(=O)(=O)c3ccccc3)cc2C1)c1ccc(F)cc1 (stereo not shown) [Compound 405, BENZENESULFONIC ACID 2-(4-FLUOROBENZOYLAMINO)-INDAN-5-YL ESTER]	2.8	
1.7	Cc1ccc(C(=O)NC2Cc3ccccc3C2)cc1Cl [Compound 34, 3-CHLORO-4-METHYL-N-INDAN-2-YL-BENZAMIDE]	3.4	
30	Cc1ccc2c(c1)CC(NC(=O)c1ccc(F)cc1)C2 (stereo not shown) [Compound 5, 4-FLUORO-N-(5-METHYL-INDAN-2-YL)-BENZAMIDE]	2.5	
16	CS(=O)(=O)c1ccc(C(=O)NC2Cc3ccccc3C2)c(Cl)c1 [Compound 312, 2-CHLORO-N-INDAN-2-YL-4-METHANESULFONYL-BENZAMIDE]	2.2	
0.8	Cc1ccc(C(=O)NC2Cc3ccccc3C2)cc1C [Compound 29, 3,4-DIMETHYL-N-INDAN-2-YL-BENZAMIDE]	3.8	
5	CCOc1ccc(C(=O)NC2Cc3ccccc3C2)c(O)c1 [Compound 23, 4-ETHOXY-2-HYDROXY-N-INDAN-2-YL-BENZAMIDE]	2.2	
10	Cc1cc(C)c(C(=O)NC2Cc3ccccc3C2)cn1 [Compound 189, N-INDAN-2-YL-4,6-DIMETHYL-NICOTINAMIDE]	2.2	
	CC(=O)Oc1cc(C)ccc1C(=O)NC1Cc2ccccc2C1 [Compound 7, ACETIC ACID 2-(INDAN-2-YL-CARBAMOYL)-5-METHYL-PHENYLESTER]		maximal fold induction (Homo sapiens, 18 h): 2.57; EC50 (Homo sapiens, Endothelial cell, 18 h): 0.1 µM
0.147	O=C(NC1Cc2ccccc2C1)c1ccc(Cl)cc1Br [Compound 331, 2-BROMO-4-CHLORO-N-INDAN-2-YL-BENZAMIDE]	2.8	
0.58	Cc1cccc(C(=O)NC2Cc3ccccc3C2)c1Cl [Compound 264, 2-CHLORO-N-INDAN-2-YL-3-METHYL-BENZAMIDE]	2.9	
27	O=C(NC1Cc2ccccc2C1)c1cccc(F)c1F [Compound 302, 2,3-DIFLUORO-N-INDAN-2-YL-BENZAMIDE]	2.8	
1.6	O=C(NC1Cc2ccccc2C1)c1ccccc1Br [Compound 272, 2-BROMO-N-INDAN-2-YL-BENZAMIDE]	2.9	
0.6	O=C(NC1Cc2c(I)ccc(I)c2C1)c1ccc(F)cc1 [Compound 429, N-(4,7-DIIODO-INDAN-2-YL)-4-FLUORO-BENZAMIDE]	2.8	
22	O=C(NC1Cc2ccccc2C1)c1ccc(C(F)(F)F)nc1 [Compound 236, N-INDAN-2-YL-6-TRIFLUOROMETHYL-NICOTINAMIDE]	2	
11	O=C(NC1Cc2ccccc2C1)c1ccc(C(=O)C(F)(F)F)cc1 [Compound 256, N-INDAN-2-YL-4-(2,2,2-TRIFLUORO-ACETYL)-BENZAMIDE]	2.5	
3	O=C(NC1Cc2ccc(F)cc2C1)c1ccc(F)cc1 (stereo not shown) [Compound 4, 4-FLUORO-N-(5-FLUORO-INDAN-2-YL)-BENZAMIDE]	2.95	
0.485	CCNc1ccc(C(=O)NC2Cc3ccccc3C2)cc1 [Compound 268, 4-ETHYLAMINO-N-INDAN-2-YL-BENZAMIDE]	3	
0.841	CCc1cccc2c1CC(NC(=O)c1ccc(F)cc1)C2 (stereo not shown) [Compound 428, N-(4-ETHYL-INDAN-2-YL)-4-FLUORO-BENZAMIDE]	2.8	
7.7	Cc1nc(C(F)(F)F)ccc1C(=O)NC1Cc2ccccc2C1 [Compound 237, N-INDAN-2-YL-2-METHYL-6-TRIFLUOROMETHYL-NICOTINAMIDE]	2.5	
	O=C(NC1Cc2cccc(C=CC(=O)N3CCOCC3)c2C1)c1ccc(F)cc1 (stereo not shown) [Compound 412, 4-FLUORO-N-[4-(3-MORPHOLIN-4-YL-3-OXO-PROPENYL)-NDAN-2-YL]-BENZAMIDE]		EC50 (EC50 of transcription induction ratio, determined graphically, human endothelial cell line, 18 h incubation, read-out: EC-50): 1 µM; TIR (max) (maximum transcription induction ratio (luciferase with compound / solvent alone), 18 h incubation): 2.5

EC50 [2] [µM]	Structure (SMILES)	maximal fold induction [1]	other results
18	O=C(NC1Cc2ccccc2C1)c1ccc(-c2ccccn2)cc1 [Compound 436, N-INDAN-2-YL-4-PYRIDIN-2-YL-BENZAMIDE]	2.6	
0.6	O=C(NC1Cc2cccc(Br)c2C1)c1ccc(F)cc1 (single isomer, unassigned) [Compound 396A, N-(4-BROMO-INDAN-2-YL)-4-FLUORO-BENZAMIDE]	3.55	
4.1	O=C(NC1Cc2ccccc2C1)c1ccc(Cl)cc1Cl [Compound 277, 2,4-DICHLORO-N-INDAN-2-YL-BENZAMIDE]	3	
16	Cc1cc(C)c(C(=O)NC2Cc3ccccc3C2)c(C)c1 [Compound 282, N-INDAN-2-YL-2,4,6-TRIMETHYL-BENZAMIDE]	2.3	
25	Cc1c(C(=O)NC2Cc3ccccc3C2)oc2ccccc12 [Compound 319, 3-METHYL-BENZOFURAN-2-CARBOXYLIC ACID INDAN-2-YLAMIDE]	2.4	
7.8	Cc1ccc(F)cc1C(=O)NC1Cc2ccccc2C1 [Compound 248, 5-FLUORO-N-INDAN-2-YL-2-METHYL-BENZAMIDE]	2.8	
2	CN(C)C(=O)C=Cc1cccc2c1CC(NC(=O)c1ccc(F)cc1)C2 (stereo not shown) [Compound 411, N-[4-(2-DIMETHYLCARBAMOYL-VINYL)-INDAN-2-YL]-4-FLUORO-BENZAMIDE]	2.5	
0.287	Cc1csc(C(=O)NC2Cc3ccccc3C2)c1Cl [Compound 342, 3-CHLORO-4-METHYL-THIOPHENE-2-CARBOXYLIC ACID INDAN-2-YLAMIDE]	3	
6	COc1ccc(C(=O)NC2Cc3ccccc3C2)cc1Cl [Compound 31, 3-CHLORO-4-METHOXY-N-INDAN-2-YL-BENZAMIDE]	3.05	
2.6	O=C(NC1Cc2ccccc2C1)c1ccccc1F [Compound 273, 2-FLUORO-N-INDAN-2-YL-BENZAMIDE]	2.8	
0.197	O=C(NC1Cc2ccccc2C1)c1ccc(Br)cc1Cl [Compound 317, 4-BROMO-2-CHLORO-N-INDAN-2-YL-BENZAMIDE]	2.9	
13	CC1=C(C(=O)NC2Cc3ccccc3C2)Cc2ccccc21 [Compound 251, 3-METHYL-1H-INDENE-2-CARBOXYLIC ACID INDAN-2-YLAMIDE]	2.6	
4.3	Cc1c(Cl)cccc1C(=O)NC1Cc2ccccc2C1 [Compound 257, 3-CHLORO-N-INDAN-2-YL-2-METHYL-BENZAMIDE]	2.7	
15	O=C(NC1Cc2ccccc2C1)c1cccc(Cl)c1 [Compound 283, 3-CHLORO-N-INDAN-2-YL-BENZAMIDE]	2.5	
0.183	CC(C)S(=O)(=O)c1csc(C(=O)NC2Cc3ccccc3C2)c1Cl [Compound 265, 3-CHLORO-4-(PROPANE-2-SULFONYL)-THIOPHENE-2-CARBOXYLIC ACID INDAN-2-YLAMIDE]	2.7	
0.25	Cc1sccc1C(=O)NC1Cc2ccccc2C1 [Compound 365, 2-METHYL-THIOPHENE-3-CARBOXYLIC ACID INDAN-2-YLAMIDE]	3	
0.238	COc1ccc(C(=O)NC2Cc3ccccc3C2)cc1 [Compound 291, N-INDAN-2-YL-4-METHOXY-BENZAMIDE]	2.8	
0.67	O=C(NC1Cc2ccccc2C1)c1ccc(SC(F)(F)F)cc1 [Compound 246, N-INDAN-2-YL-4-TRIFLUOROMETHYLSULFANYL-BENZAMIDE]	2.5	
2.5	O=C(NC1Cc2ccccc2C1)c1cccc(F)c1 [Compound 24, 3-FLUORO-N-INDAN-2-YL-BENZAMIDE]	2.88	
15	Cc1cccc(C(=O)NC2Cc3ccccc3C2)c1F [Compound 249, 2-FLUORO-N-INDAN-2-YL-3-METHYL-BENZAMIDE]	2.5	
9.6	O=C(NC1Cc2ccccc2C1)c1cccc(-c2cccnc2)c1 [Compound 432, N-INDAN-2-YL-3-PYRIDIN-3-YL-BENZAMIDE]	2.5	
21	O=C(NC1Cc2ccccc2C1)c1cccc(Br)c1 [Compound 382, 3-BROMO-N-INDAN-2-YL-BENZAMIDE]	2.5	

Structure (SMILES)	EC50 [2] [µM]	maximal fold induction [1]	other results
CCCCOc1ccc(C(=O)NC2Cc3ccccc3C2)cc1 [Compound 30, 4-BUTOXY-N-INDAN-2-YL-BENZAMIDE]	3	2.94	
